Test results reported in patent US7700782B2, “Compounds 569” (AstraZeneca AB, priority 2007, dated 2010).
Where a name gives a salt, the structure may show the parent alone.

Each compound was assayed against T1, Adrenergic β2 (Homo sapiens, UniProt P07550) (assay: Adrenergic β2 mediated cAMP production in H292 cells (AlphaScreen cAMP detection)). Details: Intrinsic Activity, fraction relative to the maximum activity determined for formoterol.
T1 construct: Adherent H292 cells were removed from tissue culture flasks; endogenous in cells; host or cells: H292 cells
Format: cell-based
Method: Adrenergic β2 Mediated cAMP Production
H292 cells were grown in 225 cm2 flasks incubator at 37° C., 5% CO2 in RPMI medium containing, 10% (v/v) FBS (foetal bovine serum) and 2 mM L-glutamine.
Adherent H292 cells were removed from tissue culture flasks by treatment with Accutase™ cell detachment solution for 15 minutes. Flasks were incubated for 15 minutes in a humidified incubator at 37° C., 5% CO2. Detached cells were re-suspended in RPMI media (containing 10% (v/v) FBS and 2 mM L-glutamine) at 0.05×10^6 cells per mL. 5000 cells in 100 μL were added to each well of a tissue-culture-treated 96-well plate and the cells incubated overnight in a humidified incubator at 37° C., 5% CO2. The culture media was removed and cells were washed twice with 100 μL assay buffer and replaced with 50 μL assay buffer (HBSS solution containing 10 mM HEPES pH 7.4 and 5 mM glucose). Cells were rested at room temperature for 20 minutes after which time 25 μL of rolipram (1.2 mM made up in assay buffer containing 2.4% (v/v) dimethylsulphoxide) was added. Cells were incubated with rolipram for 10 minutes after which time test compounds were added and the cells were incubated for 60 minutes at room temperature. The final rolipram concentration in the assay was 300 μM and final vehicle concentration was 1.6% (v/v) dimethylsulphoxide. The reaction was stopped by removing supernatants, washing once with 100 μL assay buffer and replacing with 50 μL lysis buffer. The cell monolayer was frozen at −80° C. for 30 minutes (or overnight).
The concentration of cAMP (cyclic adenosine monophosphate) in the cell lysate was determined using AlphaScreen™ methodology. The frozen cell plate was thawed for 20 minutes on a plate shaker then 10 μL of the cell lysate was transferred to a 96-well white plate. 40 μL of mixed AlphaScreen™ detection beads pre-incubated with biotinylated cAMP, was added to each well and the plate incubated at room temperature for 10 hours in the dark. The AlphaScreen™ signal was measured using an EnVision spectrophotometer (Perkin-Elmer Inc.) with the recommended manufacturer's settings. cAMP concentrations were determined by reference to a calibration curve determined in the same experiment using standard cAMP concentrations. Concentration response curves for agonists were constructed and data was fitted to a four parameter logistic equation to determine both the pEC50 and Intrinsic Activity. Intrinsic Activity was expressed as a fraction relative to the maximum activity determined for formoterol in each experiment.

T1 sequence (P07550 whole entry): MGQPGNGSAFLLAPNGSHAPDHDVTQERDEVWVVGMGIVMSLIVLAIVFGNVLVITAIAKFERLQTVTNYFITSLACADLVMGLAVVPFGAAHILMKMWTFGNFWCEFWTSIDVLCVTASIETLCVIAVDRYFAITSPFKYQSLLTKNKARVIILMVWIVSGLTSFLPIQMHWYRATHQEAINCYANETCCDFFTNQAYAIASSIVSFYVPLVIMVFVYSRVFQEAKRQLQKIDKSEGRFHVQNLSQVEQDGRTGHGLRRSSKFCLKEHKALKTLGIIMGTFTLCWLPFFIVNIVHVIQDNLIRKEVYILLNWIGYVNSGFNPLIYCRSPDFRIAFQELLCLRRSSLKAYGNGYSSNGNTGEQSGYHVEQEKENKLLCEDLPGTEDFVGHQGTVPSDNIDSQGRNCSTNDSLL

SMILES | β2 Int Act
O=C(CCNCCc1ccc(Cl)c(Cl)c1)N(CCNCCc1ccc(O)c2[nH]c(=O)sc12)C1CCOCC1 [Example 24, N^3-[2-(3,4-Dichlorophenyl)ethyl]-N-(2-{[2-(4-hydroxy-2-oxo-2,3-dihydro-1,3-benzothiazol-7-yl)ethyl]amino}ethyl)-N-(tetrahydro-2H-pyran-4-yl)-β-alaninamide bis-trifluoroacetic acid salt] | 0.77
O=C(CCNCCc1ccc(Cl)cc1)N(CCNCCc1ccc(O)c2[nH]c(=O)sc12)C1CCOCC1 [Example 26, N^3-[2-(4-Chlorophenyl)ethyl]-N-(2-{[2-(4-hydroxy-2-oxo-2,3-dihydro-1,3-benzothiazol-7-yl)ethyl]amino}ethyl)-N-(tetrahydro-2H-pyran-4-yl)-β-alaninamide bis-trifluoroacetic acid salt] | 0.83
Cc1ccccc1CCNCCC(=O)N(CCNCCc1ccc(O)c2[nH]c(=O)sc12)C1CCOCC1 [Example 27, N-(2-{[2-(4-Hydroxy-2-oxo-2,3-dihydro-1,3-benzothiazol-7-yl)ethyl]amino}ethyl)-N^3-[2-(2-methylphenyl)ethyl]-N-(tetrahydro-2H-pyran-4-yl)-β-alaninamide bis-trifluoroacetic acid salt] | 0.95
O=C(CCNCCc1ccc(Cl)cc1)N(CCNCCc1ccc(O)c2[nH]c(=O)sc12)C1CCCC1 [Example 28, N^3-[2-(4-Chlorophenyl)ethyl]-N-cyclopentyl-N-(2-{[2-(4-hydroxy-2-oxo-2,3-dihydro-1,3-benzothiazol-7-yl)ethyl]amino}ethyl)-β-alaninamide bis-trifluoroacetic acid salt] | 0.87
O=C(CCNCCc1ccccc1Cl)N(CCNCCc1ccc(O)c2[nH]c(=O)sc12)C1CCCC1 [Example 29, N^3-[2-(2-Chlorophenyl)ethyl]-N-cyclopentyl-N-(2-{[2-(4-hydroxy-2-oxo-2,3-dihydro-1,3-benzothiazol-7-yl)ethyl]amino}ethyl)-β-alaninamide bis-trifluoroacetic acid salt] | 0.97
O=C(CCNCCc1cccc(Cl)c1)N(CCNCCc1ccc(O)c2[nH]c(=O)sc12)C1CCCC1 [Example 30, N^3-[2-(3-Chlorophenyl)ethyl]-N-cyclopentyl-N-(2-{[2-(4-hydroxy-2-oxo-2,3-dihydro-1,3-benzothiazol-7-yl)ethyl]amino}ethyl)-β-alaninamide bis-trifluoroacetic acid salt] | 0.96
C[C@H](CNCCC(=O)N(CCNCCc1ccc(O)c2[nH]c(=O)sc12)C1CCCC1)c1ccccc1 [Example 31, N-cyclopentyl-N-(2-{[2-(4-hydroxy-2-oxo-2,3-dihydro-1,3-benzothiazol-7-yl)ethyl]amino}ethyl)-N^3-[(2S)-2-phenylpropyl]-β-alaninamide bis-trifluoroacetic acid salt] | 0.92
CC(C)(CNCCC(=O)N(CCNCCc1ccc(O)c2[nH]c(=O)sc12)C1CCCC1)c1ccccc1 [Example 32, N-cyclopentyl-N-(2-{[2-(4-hydroxy-2-oxo-2,3-dihydro-1,3-benzothiazol-7-yl)ethyl]amino}ethyl)-N^3-(2-methyl-2-phenylpropyl)-β-alaninamide bis-trifluoroacetic acid salt] | 0.67
O=C(CCNCCc1ccccn1)N(CCNCCc1ccc(O)c2[nH]c(=O)sc12)C1CCCCC1 [Example 33, N-Cyclohexyl-N-(2-{[2-(4-hydroxy-2-oxo-2,3-dihydro-1,3-benzothiazol-7-yl)ethyl]amino}ethyl)-N^3-(2-pyridin-2-ylethyl)-β-alaninamide bis-trifluoroacetic acid salt] | 0.78
O=C(CCNCCc1ccc(O)cc1)N(CCNCCc1ccc(O)c2[nH]c(=O)sc12)C1CCCCC1 [Example 34, N-Cyclohexyl-N-(2-{[2-(4-hydroxy-2-oxo-2,3-dihydro-1,3-benzothiazol-7-yl)ethyl]amino}ethyl)-N^3-[2-(4-hydroxyphenyl)ethyl]-β-alaninamide bis-trifluoroacetic acid salt] | 0.75
O=C(CCNCCc1cccs1)N(CCNCCc1ccc(O)c2[nH]c(=O)sc12)C1CCCCC1 [Example 35, N-Cyclohexyl-N-(2-{[2-(4-hydroxy-2-oxo-2,3-dihydro-1,3-benzothiazol-7-yl)ethyl]amino}ethyl)-N^3-[2-(2-thienyl)ethyl]-β-alaninamide bis-trifluoroacetic acid salt] | 0.91
O=C(CCNCCc1cccc(F)c1)N(CCNCCc1ccc(O)c2[nH]c(=O)sc12)C1CCCCCC1 [Example 36, N-Cycloheptyl-N^3-[2-(3-fluorophenyl)ethyl]-N-(2-{[2-(4-hydroxy-2-oxo-2,3-dihydro-1,3-benzothiazol-7-yl)ethyl]amino}ethyl)-β-alaninamide bis-trifluoroacetic acid salt] | 0.84
O=C(CCNCCc1cccc(O)c1)N(CCNCCc1ccc(O)c2[nH]c(=O)sc12)C1CCCCCC1 [Example 37, N-Cycloheptyl-N-(2-{[2-(4-hydroxy-2-oxo-2,3-dihydro-1,3-benzothiazol-7-yl)ethyl]amino}ethyl)-N^3-[2-(3-hydroxyphenyl)ethyl]-β-alaninamide bis-trifluoroacetic acid salt] | 0.91
CC(C)(C)CN(CCNCCc1ccc(O)c2[nH]c(=O)sc12)C(=O)CCNC(C)(C)Cc1ccccc1 [Example 38, N^3-(1,1-Dimethyl-2-phenylethyl)-N-(2,2-dimethylpropyl)-N-(2-{[2-(4-hydroxy-2-oxo-2,3-dihydro-1,3-benzothiazol-7-yl)ethyl]amino}ethyl)-β-alaninamide bis-trifluoroacetic acid salt] | 0.42
CC(=O)OCC(C)(C)CN(CCNCCc1ccc(O)c2[nH]c(=O)sc12)C(=O)CCNCCc1ccc(Cl)cc1 [Example 39, 3-[{N-[2-(4-Chlorophenyl)ethyl]-β-alanyl}(2-{[2-(4-hydroxy-2-oxo-2,3-dihydro-1,3-benzothiazol-7-yl)ethyl]amino}ethyl)amino]-2,2-dimethylpropyl acetate diacetic acid salt] | 0.58
CC(C)(CO)CN(CCNCCc1ccc(O)c2[nH]c(=O)sc12)C(=O)CCNCCc1ccc(Cl)cc1 [Example 40, N^3-[2-(4-Chlorophenyl)ethyl]-N-(3-hydroxy-2,2-dimethylpropyl)-N-(2-{[2-(4-hydroxy-2-oxo-2,3-dihydro-1,3-benzothiazol-7-yl)ethyl]amino}ethyl)-β-alaninamide diacetic acid salt] | 0.64
O=C(CCNCCc1ccccc1)N(CCNCCc1ccc(O)c2[nH]c(=O)sc12)C1Cc2ccccc2C1 [Example 41, N^1-(2,3-Dihydro-1H-inden-2-yl)-N^1-(2-{[2-(4-hydroxy-2-oxo-2,3-dihydro-1,3-benzothiazol-7-yl)ethyl]amino}ethyl)-N^3-(2-phenylethyl)-β-alaninamide bis-trifluoroacetic acid salt] | 0.99
O=C(CCNCCc1cccc(Cl)c1)N(CCNCCc1ccc(O)c2[nH]c(=O)sc12)C1Cc2ccccc2C1 [Example 42, N^3-[2-(3-Chlorophenyl)ethyl]-N^1-(2,3-dihydro-1H-inden-2-yl)-N^1-(2-{[2-(4-hydroxy-2-oxo-2,3-dihydro-1,3-benzothiazol-7-yl)ethyl]amino}ethyl)-β-alaninamide bis-trifluoroacetic acid salt] | 0.82
